Experimental data as given in ChEMBL document CHEMBL4257522, “Synthesis and preliminary anti-inflammatory and anti-bacterial evaluation of some diflunisal aza-analogs” (Medchemcomm, 2018).
Calls of active or inactive are those of the source. The rule behind the calls is not given here.

Legend:
Streptococcus pyogenes [1] = experiment: Potentiation of tetracycline-induced antibacterial activity against Streptococcus pyogenes ATCC 14289 assessed as minimum modulatory concentration up to 32 uM measured after 16 hrs in presence of MIC/4 tetracycline; type: functional; settings: ATCC 14289, 16 h, read-out: MEC
Macrophage cell line [2] = experiment: Antiinflammatory activity in human PBMC-differentiated macrophages assessed as inhibition of LPS-induced TNFalpha production at 0.01 to 10 uM measured after 24 hrs by ELISA; type: functional, cell-based
Pseudomonas aeruginosa [3] = experiment: Toxicity in Pseudomonas aeruginosa ATCC BAA-2108 up to 32 uM measured after 16 hrs; type: organism-based; settings: in vitro
Enterococcus faecium = experiment: Potentiation of ciprofloxacin-induced antibacterial activity against Enterococcus faecium ATCC 700221 assessed as minimum modulatory concentration up to 32 uM measured after 16 hrs in presence of MIC/4 ciprofloxacin; type: functional; settings: ATCC 700221, 16 h, read-out: MEC
Pseudomonas aeruginosa [4] = experiment: Potentiation of ciprofloxacin-induced antibacterial activity against Pseudomonas aeruginosa ATCC BAA-2108 assessed as minimum modulatory concentration up to 32 uM measured after 16 hrs in presence of MIC/4 ciprofloxacin; type: functional; settings: ATCC BAA-2108, 16 h, read-out: MEC
Pseudomonas aeruginosa [5] = experiment: Potentiation of methicillin-induced antibacterial activity against Pseudomonas aeruginosa ATCC BAA-2108 assessed as minimum modulatory concentration up to 32 uM measured after 16 hrs in presence of MIC/4 methicillin; type: functional; settings: ATCC BAA-2108, 16 h, read-out: MEC
Escherichia coli [6] = experiment: Potentiation of methicillin-induced antibacterial activity against Escherichia coli ATCC 43894 assessed as minimum modulatory concentration up to 32 uM measured after 16 hrs in presence of MIC/4 methicillin; type: functional; settings: ATCC 43894, 16 h, read-out: MEC
Macrophage cell line [7] = experiment: Antiinflammatory activity in human PBMC-differentiated macrophages assessed as inhibition of LPS-induced IL-1beta production at 0.01 to 10 uM measured after 24 hrs by ELISA; type: functional, cell-based
Streptococcus pyogenes [8] = experiment: Potentiation of ciprofloxacin-induced antibacterial activity against Streptococcus pyogenes ATCC 14289 assessed as minimum modulatory concentration up to 32 uM measured after 16 hrs in presence of MIC/4 ciprofloxacin; type: functional; settings: ATCC 14289, 16 h, read-out: MEC
Pseudomonas aeruginosa [9] = experiment: Potentiation of tetracycline-induced antibacterial activity against Pseudomonas aeruginosa ATCC BAA-2108 assessed as minimum modulatory concentration up to 32 uM measured after 16 hrs in presence of MIC/4 tetracycline; type: functional; settings: ATCC BAA-2108, 16 h, read-out: MEC
Escherichia coli [10] = experiment: Potentiation of ciprofloxacin-induced antibacterial activity against Escherichia coli ATCC 43894 assessed as minimum modulatory concentration up to 32 uM measured after 16 hrs in presence of MIC/4 ciprofloxacin; type: functional; settings: ATCC 43894, 16 h, read-out: MEC
Macrophage cell line [11] = experiment: Antiinflammatory activity in human PBMC-differentiated macrophages assessed as lowest concentration required to show at least 25% inhibition of LPS-induced prostaglandin production measured after 24 hrs by ELISA; type: functional
Macrophage cell line [12] = experiment: Antiinflammatory activity in human PBMC-differentiated macrophages assessed as lowest concentration required to show at least 25% inhibition of LPS-induced TNFalpha production measured after 24 hrs by ELISA; type: functional
Macrophage cell line [13] = experiment: Antiinflammatory activity in human PBMC-differentiated macrophages assessed as lowest concentration required to show at least 25% inhibition of LPS-induced IL-8 production measured after 24 hrs by ELISA; type: functional
Macrophage cell line [14] = experiment: Antiinflammatory activity in human PBMC-differentiated macrophages assessed as lowest concentration required to show at least 25% inhibition of LPS-induced IL-1beta production measured after 24 hrs by ELISA; type: functional

SMILES | minimal effective concentration (Streptococcus pyogenes [1]) [µM] | inhibition (Macrophage cell line [2]) | Activity (Pseudomonas aeruginosa [3]) | minimal effective concentration (Enterococcus faecium) [µM] | minimal effective concentration (Pseudomonas aeruginosa [4]) [µM] | minimal effective concentration (Pseudomonas aeruginosa [5]) [µM] | minimal effective concentration (Escherichia coli [6]) [µM] | inhibition (Macrophage cell line [7]) | minimal effective concentration (Streptococcus pyogenes [8]) [µM] | minimal effective concentration (Pseudomonas aeruginosa [9]) [µM] | minimal effective concentration (Escherichia coli [10]) [µM] | Activity (Macrophage cell line [11]) [µM] | Activity (Macrophage cell line [12]) [µM] | Activity (Macrophage cell line [13]) [µM] | Activity (Macrophage cell line [14]) [µM]
COc1cccc(-c2cc(C(=O)[O-])c(O)c[n+]2C)c1 | > 32 | inactive | Non-Toxic | > 32 | > 32 | > 32 | > 32 | inactive | > 32 | > 32 | > 32 |  |  |  | 
O=C(O)c1cnc2c(F)cc(F)cc2c1O | 4 |  | Non-Toxic | > 32 | 4 | 8 | > 32 |  | > 32 | > 32 | > 32 | 10 | 1 | 10 | 1
O=C(O)c1cc(-c2ccccc2)nc(-c2ccccc2)c1O | 8 |  | Non-Toxic | > 32 | 8 | 8 | > 32 |  | > 32 | > 32 | > 32 | 10 | 10 |  | 10
O=C(O)c1ccnc(Cc2ccccc2)c1O | > 32 | inactive | Non-Toxic | > 32 | > 32 | > 32 | > 32 | inactive | > 32 | > 32 | > 32 |  |  |  | 
COc1cccc(-c2cc(C(=O)O)c(O)cn2)c1 | > 32 | inactive | Non-Toxic | > 32 | > 32 | > 32 | > 32 | inactive | > 32 | > 32 | > 32 |  |  |  | 
C[n+]1cc(O)c(C(=O)[O-])cc1-c1ccccc1 | > 32 | inactive | Non-Toxic | > 32 | > 32 | > 32 | > 32 | inactive | > 32 | > 32 | > 32 |  |  |  | 
O=C(O)c1cc(-c2ccc(F)cc2F)ccc1O [DIFLUNISAL] | > 32 | inactive | Non-Toxic | > 32 | > 32 | > 32 | > 32 | inactive | > 32 | > 32 | > 32 | 0.1 |  |  | 
Cc1nc(-c2ccccc2)c(O)cc1C(=O)O | 4 |  | Non-Toxic | > 32 | 4 | 16 | > 32 |  | > 32 | > 32 | > 32 |  | 10 |  | 10
O=C(O)c1cnc(-c2ccccc2)c(O)c1 | 4 | inactive | Non-Toxic | > 32 | 4 | 16 | > 32 | inactive | > 32 | > 32 | > 32 |  |  |  | 
O=C(O)c1cc(O)c(-c2ccccc2)nc1-c1ccccc1 | 4 |  | Non-Toxic | > 32 | 4 | 16 | > 32 |  | > 32 | > 32 | > 32 |  | 10 | 10 | 10
O=C(O)c1cc(-c2ccc(F)cc2F)ncc1O | 8 |  | Non-Toxic | > 32 | 4 | 8 | > 32 |  | > 32 | > 32 | > 32 | 10 | 1 | 1 | 1
O=C(O)c1ccnc(-c2ccccc2)c1O | 1 |  | Non-Toxic | > 32 | 4 | 8 | > 32 |  | > 32 | > 32 | > 32 |  | 10 | 10 | 10
C[n+]1ccc(C(=O)[O-])c(O)c1Cc1ccccc1 | > 32 | inactive | Non-Toxic | > 32 | > 32 | > 32 | > 32 | inactive | > 32 | > 32 | > 32 |  |  |  | 
O=C(O)c1cc(O)cnc1-c1ccccc1 | 2 |  | Non-Toxic | > 32 | 8 | 16 | > 32 |  | > 32 | > 32 | > 32 |  | 10 | 10 | 10
Cc1nc(-c2ccccc2)cc(C(=O)O)c1O | > 32 | inactive | Non-Toxic | > 32 | > 32 | > 32 | > 32 | inactive | > 32 | > 32 | > 32 |  |  |  | 
Cc1cc(C(=O)O)c(O)c(Cc2ccccc2)n1 | 16 | inactive | Non-Toxic | > 32 | > 32 | > 32 | > 32 | inactive | > 32 | > 32 | > 32 |  |  |  | 
O=C(O)c1cc(-c2ccccc2)ncc1O | > 32 | inactive | Non-Toxic | > 32 | > 32 | > 32 | > 32 | inactive | > 32 | > 32 | > 32 |  |  |  | 
